Activity calls are given as the source filed them. The calls are words filed in the database; no cut-off is given here.
How the values were obtained:
[1] = Cytotoxicity against human HT-29 cells assessed as reduction in cell viability after 48 hrs by MTT assay; type: functional, cell-based; settings: HT-29, 48 h
[2] = Cytotoxicity against human PANC1 cells assessed as reduction in cell viability after 48 hrs by MTT assay; type: functional, cell-based; settings: PANC-1, 48 h
[3] = Cytotoxicity against human MCF7 cells assessed as reduction in cell viability after 48 hrs by MTT assay; type: functional, cell-based; settings: MCF7, 48 h
[4] = Cytotoxicity against human HS27 cells assessed as reduction in cell viability up to 100 uM after 48 hrs by MTT assay; type: toxicity, cell-based; settings: hs27, 48 h
[5] = (§1) Antiproliferative activity against human HT-29 cells after 48 hrs by [methyl-3H]-thymidine incorporation assay; type: functional, cell-based; settings: HT-29, 48 h
[6] = system: HT-29; experiment: as §1; type: functional, cell-based
[7] = Cell cycle arrest in human HT-29 cells assessed as accumulation in G1 phase at 7.4 uM after 24 hrs by propidium iodide staining-based flow cytometry; type: functional
[8] = Cell cycle arrest in human HT-29 cells assessed as accumulation in G1 phase at 9.8 uM after 24 hrs by propidium iodide staining-based flow cytometry; type: functional
[9] = system: HT-29; experiment: Induction of apoptosis in human HT-29 cells assessed as increase in histone associated DNA fragmentation after 48 hrs by ELISA; type: functional, cell-based

Q: With `CC[C@]12CCCN3CCc4c(n(c5ccccc45)[C@@H](c4ccc(O)c5c4N=C4CC[C@]6(CC)CCCN7CC[C@@]45[C@@H]76)C1)[C@@H]32` as the molecule, how does the IC50 [1] read?
A: Its IC50 is 4.9 µM.

Q: And the IC50 [2]?
A: The IC50 was 28.1 µM.

Q: And the IC50 [3]?
A: Its IC50 is 54.5 µM.

Q: What about the Activity [4] of the same molecule?
A: The Activity was “Non-Toxic”.

Q: And the IC50 [5]?
A: The IC50 was 2.3 µM.

Q: What about the inhibition [6] of the same molecule?
A: The inhibition was “Dose-dependent effect”.

Q: And the Activity [7]?
A: The Activity was “Active”.

Q: And the Activity [8]?
A: Its Activity is “Active”.

Q: And the Activity [9]?
A: The Activity was “Dose-dependent effect”.

— ChEMBL document CHEMBL3856266, “Melodinine V, an antitumor bisindole alkaloid with selective cytotoxicity from Melodinus henryi” (Bioorg Med Chem Lett, 2016)
